Results taken from US8648038B2, “(2-aryloxyacetylamino)phenylpropionic acid derivatives, processes for preparation thereof and use thereof as medicaments” (Sanofi, priority 2010, dated 2014).

Biological target: T1, GPR40 (Rattus norvegicus, UniProt Q8K3T4)
T1 construct: expressed in transfected cells; host or cells: HEK293
Test: In vitro FLIPR assay with recombinant HEK293 cells which express the GPCR GPR40 (intracellular Ca2+)
Assay type: cell-based
Conditions: recombinant HEK293 cells expressing GPR40; Fluo-4 Ca2+ signal; 100% = 10 μM linoleic acid
Procedure: In Vitro FLIPR Assay with Recombinant Cells which Express the GPCR GPR40
Function-testing assays were performed by means of the FLIPR technique (“Fluorescence Imaging Plate Reader”, Molecular Devices Corp.). For this purpose, agonist-induced changes were determined in the intracellular concentration of Ca^2+ in recombinant HEK293 cells which expressed the GPCR GPR40.
For the studies, cells were sown into 96-well microtiter plates (60 000 cells/well) and left to grow overnight. The medium was removed and the cells were incubated in buffer which contains the fluorescent dye Fluo-4. After this loading with dye, the cells were washed, test substance was added and changes were measured in the intracellular Ca^2+ concentration in the FLIPR instrument. Results were presented as the percentage change relative to the control (0%: no test substance added; 100%: 10 μM reference agonist linoleic acid added) and used to calculate dose/effect curves, and EC50 values were determined.

T1 sequence (Q8K3T4 whole entry): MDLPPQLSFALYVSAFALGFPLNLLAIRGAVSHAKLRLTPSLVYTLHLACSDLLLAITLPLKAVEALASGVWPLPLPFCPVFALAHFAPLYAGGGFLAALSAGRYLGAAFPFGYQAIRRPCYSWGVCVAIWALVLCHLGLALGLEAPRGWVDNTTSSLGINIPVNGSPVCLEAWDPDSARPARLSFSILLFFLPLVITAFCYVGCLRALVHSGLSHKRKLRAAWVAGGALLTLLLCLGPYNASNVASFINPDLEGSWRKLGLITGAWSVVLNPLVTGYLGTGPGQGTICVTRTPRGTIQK

Row | Structure (SMILES) | EC50 [µM]
1 | CC#CC(CC(=O)O)c1ccc(NC(=O)C(Oc2ccc(C(C)C)cc2Br)C(C)C)cc1 (stereo not drawn) [Example 9] | 0.553
2 | CC#CC(CC(=O)O)c1ccc(NC(=O)C(C)Oc2cc(C(C)C)ccc2C)cc1 (stereo not drawn) [Example 5] | 0.176
3 | CC#CC(CC(=O)O)c1ccc(NC(=O)C(C)(C)Oc2ccc(C(C)(C)C)cc2Br)cc1 (stereo not drawn) [Example 22] | 4.46
4 | CC#CC(CC(=O)O)c1ccc(NC(=O)C(C)Oc2cccc(C(C)C)c2)cc1 (stereo not drawn) [Example 6, 3-{4-[2-(3-Isopropylphenoxy)propionylamino]phenyl}hex-4-ynoic acid] | 0.071
5 | COC(CC(=O)O)c1ccc(NC(=O)C(C)Oc2cc(C(C)C)ccc2C)cc1 (stereo not drawn) [Example 39] | 5.08
6 | COC(CC(=O)O)c1ccc(NC(=O)C(C)Oc2cc(C)ccc2C(C)C)cc1 (stereo not drawn) [Example 40, 3-{4-[2-(2-Isopropyl-5-methylphenoxy)propionylamino]phenyl}-3-methoxypropionic Acid] | 2.13
7 | CC#CC(CC(=O)O)c1ccc(NC(=O)C(C)(C)Oc2cccc(C(C)C)c2)cc1 (stereo not drawn) [Example 16] | 0.187
8 | CC#CC(CC(=O)O)c1ccc(NC(=O)C(C)Oc2cc(C)ccc2C(C)C)cc1 (stereo not drawn) [Example 4] | 0.094

Other lines, results leading:

Row | EC50 [µM] | Structure (SMILES)
9 | 1.14 | CC#CC(CC(=O)O)c1ccc(NC(=O)C(C)(C)Oc2ccc(C(C)C)cc2Br)cc1 (stereo not drawn) [Example 8]
10 | 1.16 | COC(CC(=O)O)c1ccc(NC(=O)C(C)(C)Oc2cccc(C(C)C)c2)cc1 (stereo not drawn) [Example 47]
11 | 10.7 | COC(CC(=O)O)c1ccc(NC(=O)C(C)Oc2cccc(C(C)(C)C)c2)cc1 (stereo not drawn) [Example 42]
12 | 20.8 | COC(CC(=O)O)c1ccc(NC(=O)C(C)(C)Oc2ccc(Cl)cc2Cl)cc1 (stereo not drawn) [Example 43]
